Positions count from the first letter of the chain named. Ends that are not written are not given here.
Tests used:
ADGRF1 [1] = target: T1, ADGRF1 (Homo sapiens, UniProt Q5T601, V689A); experiment: BRET assay using TRUPATH biosensors, Gs activation of ADGRF1; assay type: cell-based; conditions: Gs, ADGRF1 V689^ICL2A, n = 3
T1 construct: Flag (N); expressed in transfected cells; host or cells: HEK293F
T1 sequence (Q5T601 20-910 V689A): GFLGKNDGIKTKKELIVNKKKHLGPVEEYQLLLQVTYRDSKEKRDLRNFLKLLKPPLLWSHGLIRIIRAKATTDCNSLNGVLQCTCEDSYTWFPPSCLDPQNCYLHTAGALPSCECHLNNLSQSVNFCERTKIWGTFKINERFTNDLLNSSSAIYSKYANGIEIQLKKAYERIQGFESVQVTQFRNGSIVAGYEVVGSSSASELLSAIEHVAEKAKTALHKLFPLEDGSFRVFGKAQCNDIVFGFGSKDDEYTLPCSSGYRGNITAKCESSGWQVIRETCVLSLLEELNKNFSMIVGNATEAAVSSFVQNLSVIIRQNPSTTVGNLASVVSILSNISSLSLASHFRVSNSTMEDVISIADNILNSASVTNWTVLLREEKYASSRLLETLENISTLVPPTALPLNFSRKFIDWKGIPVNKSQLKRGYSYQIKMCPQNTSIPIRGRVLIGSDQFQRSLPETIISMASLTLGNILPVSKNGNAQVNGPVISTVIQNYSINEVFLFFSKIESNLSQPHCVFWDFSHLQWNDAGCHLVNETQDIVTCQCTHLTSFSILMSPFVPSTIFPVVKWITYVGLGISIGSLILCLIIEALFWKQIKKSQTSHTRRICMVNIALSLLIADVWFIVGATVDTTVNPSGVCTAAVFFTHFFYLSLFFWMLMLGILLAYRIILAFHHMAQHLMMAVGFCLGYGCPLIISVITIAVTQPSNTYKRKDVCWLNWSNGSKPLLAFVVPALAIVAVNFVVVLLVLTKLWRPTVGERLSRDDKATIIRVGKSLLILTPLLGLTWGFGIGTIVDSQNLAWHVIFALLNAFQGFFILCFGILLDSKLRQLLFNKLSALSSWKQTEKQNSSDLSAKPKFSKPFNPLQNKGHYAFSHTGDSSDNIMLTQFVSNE
Protocol: (§1) To study the synthetic stalk peptide-induced G protein activation of ADGRD1 and ADGRF1, a BRET assay using TRUPATH biosensors was conducted to measure the proximal interaction between RLuc8 fused to the Gα subunit and GFP2 fused to the Gγ subunit. The TRUPATH suite of biosensors was obtained from Addgene (Addgene kit no. 1000000163) as a gift from B. Roth, including GαsS-RLuc8, Gαi1-RLuc8, Gβ3 and Gγ9-GFP2 as previously described.
(§2) The wild-type or mutant ADGRD1 and ADGRF1 were transiently co-transfected with plasmids encoding Gα-RLuc8 (GαsS-RLuc8 for Gs activation assay; Gαi1-RLuc8 for Gi activation assay), Gβ3 and Gγ9-GFP2 at a ratio of 2:1:1:1 (receptor plasmid, 800 ng; G protein subunit plasmids, 400 ng for each) in 2 ml HEK293F cells at a density of 1.2 × 10^6 cells per ml. Cell cultivation and receptor surface expression measurement were performed as described above. The cells were plated into 96-well white plates (40,000 cells per well) in 60 μl of assay buffer and incubated at 37 °C for 30 min. Then 10 μl of freshly prepared 50 μM coelenterazine 400a (Nanolight Technologies) was added. […] The cells were stimulated with 30 μl of synthetic stalk peptide at different concentrations and the BRET signals were monitored continuously five times. The last measurements were used in data analysis. The BRET ratios were calculated as the ratio of the GFP2 emission to RLuc8 emission.

ADGRF1 [2] = target: T2, ADGRF1 (Homo sapiens, UniProt Q5T601); experiment: as above; assay type: cell-based; conditions: Gs, ADGRF1 WT, n = 7
T2 construct: Flag (N); expressed in transfected cells; host or cells: HEK293F
T2 sequence (Q5T601 20-910): T1 sequence (Q5T601 20-910 V689A) with A670V
Protocol: as §1, §2

[3] = read-out: pEC50 (mean ± s.e.m.) (converted)

Emax (mean ± s.e.m.) (ADGRF1 [1]): 77 ± 10 % of WT
EC50 (ADGRF1 [1]; [3]): 204 nM
Emax (mean ± s.e.m.) (ADGRF1 [2]): 100 ± 9 % of WT
EC50 (ADGRF1 [2]; [3]): 35.5 nM
Sequence: TSFSILMSPFVP [pF1]

Source: publication PMC9046087, “Structural basis of tethered agonism of the adhesion GPCRs ADGRD1 and ADGRF1” (Nature, 2022)
